Reference: paper PMC10510397, “Development of a Selective Peptide κ-Opioid Receptor Antagonist by Late-Stage Functionalization with Cysteine Staples” (Journal of Medicinal Chemistry, 2023)
Where a name gives a salt, the structure may show the parent alone. Read-outs that look alike come from different tables or passages of the source. Numbered stars: 1 amine (or outer) side, 2 acyl side, 3 side chain; on linkers, the order of the positions; unused ones are H or OH. Bridge positions count the residues as written; N and C are the ends. Square brackets hold non-standard residues; d marks the D form. Peptide text beside a SMILES is read from it. CH2COCH2 = O=C(C[*:1])C[*:2]; CH2 = C([*:1])[*:2]; Mpa = O=C(O)CCS

Key:
mouse KOR [1] = molecular target: T1, mouse KOR (Mus musculus, UniProt P33534); assay: biochemical; type: binding; parameters: expressed in transfected cells
T1 sequence (P33534 whole entry): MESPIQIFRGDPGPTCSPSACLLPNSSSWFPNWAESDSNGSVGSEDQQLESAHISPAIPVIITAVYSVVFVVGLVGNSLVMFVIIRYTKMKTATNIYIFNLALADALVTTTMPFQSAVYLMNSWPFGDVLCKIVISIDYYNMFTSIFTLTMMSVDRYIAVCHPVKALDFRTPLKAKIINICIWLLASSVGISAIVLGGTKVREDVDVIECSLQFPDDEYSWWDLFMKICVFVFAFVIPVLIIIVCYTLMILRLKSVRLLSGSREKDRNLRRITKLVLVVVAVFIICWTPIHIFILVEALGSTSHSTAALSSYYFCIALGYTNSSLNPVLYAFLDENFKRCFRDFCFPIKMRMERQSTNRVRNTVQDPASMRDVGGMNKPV

mouse KOR [2] = molecular target: T1, mouse KOR; type: cell-based; parameters: expressed in transfected cells; host or cells: HEK293 (transient co-transfection, 1:10 ratio); details: 10 μM ligand; compared to dynA1–13-NH2 = 100%
mouse KOR [3] = molecular target: T1, mouse KOR; assay: cell-based; type: cell-based; parameters: expressed in transfected cells; details: for activity at KOR in the functional cAMP assay: agonist mode, ligand on its own, up to concentrations of 10 μM; for Emax: read-out: potency/efficacy cAMP Emax ± SD; for EC50: HEK293 cells stably expressing mouse KOR, forskolin 10 μM, n.a. = not active, read-out: potency/efficacy cAMP EC50 ± SD
[4] = stability assay in human serum (RP-HPLC); type: in vitro ADME; details: 37 °C
Procedure: The stability of peptide ligands was determined with human serum from male AB plasma (Sigma) centrifuged at 13,300g for 10 min to remove the lipid content. The supernatant was preincubated at 37 °C for 5 min before 10 μL of a peptide stock solution (3 mg/mL in H2O) was added to 300 μL of serum. A reference solution was prepared in phosphate-buffered saline (PBS) buffer. The serum was incubated at 37 °C and analyzed over a time course of 5 h with 40 μL of aliquots removed at time points T = 0, 15, 30, 60, 90, 120, 240, and 300 min. Each aliquot was quenched with 40 μL of 5 M urea and incubated on ice for 10 min. The proteins were then precipitated with the addition of 40 μL of 20% (w/v) trichloroacetic acid and further incubated on ice for 10 min. The samples were centrifuged for 10 min at 15,000g, and the supernatant was analyzed by analytical RP-HPLC using a Phenomenex Jupiter C18 column (5 μm, 300 Å, 150 × 2 mm) using a linear gradient from 0 to 50% solvent B (90% acetonitrile, 10% H2O, and 0.05% trifluoroacetic acid) and a flow rate of 1 mL/min. The percentage of peptide remaining was determined by the integration of the analyte in comparison to T = 0 min. The peptides were analyzed in triplicate, and data were fitted to an exponential decay curve using GraphPad Prism software.

DRG neurons = assay: single-cell calcium microfluorimetry in DRG neurons; type: cell-based, mouse; details: 0.5 μM pre-applied, U50,488 10 μM
mice [5] = assay: radiant heat tail-flick assay; type: in vivo, mouse; details: 10 mg/kg s.c., 24 h before U50,488 5 mg/kg
Procedure: (§1) Breeding, euthanasia, and all procedures of animal handling were performed according to the regulations of animal care and welfare. Experiments were carried out in accordance with the European Communities Council Directive of 24 November 1986 (86/609/EEC). Behavioral experiments were performed in male CD1 mice (8–10 weeks old) purchased from Janvier Labs (Le Genest-Saint-Isle, France). All animal care and experimental procedures were in accordance with the ethical guidelines for the animal welfare standards of the European Communities Council Directive (2010/63/EU) and were approved by the Committee of Animal Care of the Austrian Federal Ministry of Science and Research. […]
The radiant heat tail-flick test was performed using an UB 37360 Ugo Basile analgesiometer (Ugo Basile s.r.l., Varese, Italy) as described previously.[52] The reaction time required by the mouse to remove its tail after application of the radiant heat was measured and defined as the tail-flick latency (in seconds). Tail-flick latencies were measured before and after s.c. administration of saline (control) or U50,488 (5 mg/kg) (i.e., 30 and 60 min) (test latency, TL). […] The antinociceptive effect (as the percentage of the maximum possible effect, % MPE) was calculated according to the formula = [(TL – BL)/(cutoff time – BL)] × 100 where TL represents the test latency and BL is the basal latency.

mice [6] = assay: rotarod test; type: in vivo, mouse; details: 10 mg/kg s.c., 24 h before U50,488 5 mg/kg; at 30 min
Procedure: as §1, with “Research. Mice were group-housed in a temperature-controlled specific pathogen-free room with a 12 h light/dark cycle and with free access to food and water.” for “Research.”
The rotarod test was performed using the accelerating rotarod treadmill (Acceler Rota-Rod 7650, Ugo Basile s.r.l., Varese, Italy) for mice (diameter 3.5 cm) as described previously.[53] […] The time spent on the drum was recorded for each mouse before (baseline) and at 30 min after s.c. administration of saline (control) or U50,488 (5 mg/kg). […] The rotarod data are expressed as percentage (%) changes from the rotarod latencies obtained before (baseline, BL) and after drug administration (test, TL) calculated as 100 × (TL/BL).

[7] = 1 nM [3H]-diprenorphine, HEK293 cell membranes stably expressing mouse KOR, read-out: affinity Ki ± SD

For `CC[C@H](C)[C@@H]1NC(=O)[C@H](CCCNC(=N)N)NC(=O)[C@H](CCCNC(=N)N)NC(=O)[C@H](CC(C)C)NC(=O)[C@H](Cc2ccccc2)NC(=O)CNC(=O)CNC(=O)[C@H](Cc2ccc(O)cc2)NC(=O)CCSCSC[C@@H](C(=O)N[C@@H](CCCCN)C(=O)N[C@@H](CC(C)C)C(=O)N[C@@H](CCCCN)C(=O)O)NC(=O)[C@H](CCCNC(=N)N)NC1=O` [CSD-CH2(1,10)-OH] ([Mpa]YGGFLRRIRCKLK-OH; linker 1-11 via CH2), the Ki (mouse KOR [1]; [7]) was 31 nM, the “β-arrestin-2 recruitment efficiency (ligand induced BRET)” value (“β-arrestin-2 recruitment efficiency” for short) (mouse KOR [2]) was “less than 25%” and the “activity at KOR in the functional cAMP assay” value (“activity at KOR” below) (mouse KOR [3]) was “inactive”.

`CC(C)C[C@H](NC(=O)[C@H](CCCCN)NC(=O)[C@@H]1CCCN1C(=O)[C@H](CCCNC(=N)N)NC(=O)[C@@H]1CSCC(=O)CSCCC(=O)N[C@@H](Cc2ccc(O)cc2)C(=O)NCC(=O)NCC(=O)N[C@@H](Cc2ccccc2)C(=O)N[C@@H](CC(C)C)C(=O)N[C@@H](CCCNC(=N)N)C(=O)N[C@@H](CCCNC(=N)N)C(=O)N1)C(=O)N[C@@H](CCCCN)C(=O)O` [CSD-ace(1,8)-OH] ([Mpa]YGGFLRRCRPKLK-OH; linker 1-9 via CH2COCH2) showed an Emax (mouse KOR [3]) of 57 ± 11%.

With `CC(C)C[C@H](NC(=O)[C@H](CCCCN)NC(=O)[C@@H]1CCCN1C(=O)[C@H](CCCNC(=N)N)NC(=O)[C@@H]1CSCC(=O)CSCCC(=O)N[C@@H](Cc2ccc(O)cc2)C(=O)NCC(=O)NCC(=O)N[C@@H](Cc2ccccc2)C(=O)N[C@@H](CC(C)C)C(=O)N[C@@H](CCCNC(=N)N)C(=O)N[C@@H](CCCNC(=N)N)C(=O)N1)C(=O)N[C@@H](CCCCN)C(N)=O` [CSD-ace(1,8)-NH2] ([Mpa]YGGFLRRCRPKLK-NH2; linker 1-9 via CH2COCH2) the Emax (mouse KOR [3]) was 73 ± 14%.

With `CC(C)C[C@H](NC(=O)[C@H](CCCCN)NC(=O)[C@@H]1CCCN1C(=O)[C@H](CCCNC(=N)N)NC(=O)[C@@H]1CSCSCCC(=O)N[C@@H](Cc2ccc(O)cc2)C(=O)NCC(=O)NCC(=O)N[C@@H](Cc2ccccc2)C(=O)N[C@@H](CC(C)C)C(=O)N[C@@H](CCCNC(=N)N)C(=O)N[C@@H](CCCNC(=N)N)C(=O)N1)C(=O)N[C@@H](CCCCN)C(N)=O` [CSD-CH2(1,8)-NH2] ([Mpa]YGGFLRRCRPKLK-NH2; linker 1-9 via CH2) the “activity at KOR” value (mouse KOR [3]) was “inactive” and the “t1/2 in human serum” value [4] was 95 min.

With `CC[C@H](C)[C@H](NC(=O)[C@H](CCCNC(=N)N)NC(=O)[C@H](CCCNC(=N)N)NC(=O)[C@H](CC(C)C)NC(=O)[C@H](Cc1ccccc1)NC(=O)CNC(=O)CNC(=O)[C@@H](N)Cc1ccc(O)cc1)C(=O)N[C@@H](CCCNC(=N)N)C(=O)N1CCC[C@H]1C(=O)N[C@@H](CCCCN)C(=O)N[C@@H](CC(C)C)C(=O)N[C@@H](CCCCN)C(N)=O` [dynA1–13-NH2, Dynorphin (dyn) A1–13 amide trifluoroacetate salt, reference compound] the “β-arrestin-2 recruitment efficiency” value (mouse KOR [2]) was 100%, the EC50 (mouse KOR [3]) was 9.1 nM and the Emax (mouse KOR [3]) was 100%. For the same compound, the “t1/2 in human serum” value [4] was 4 min.

With `Oc1ccc2c3c1O[C@H]1c4[nH]c5c(c4C[C@@]4(O)[C@@H](C2)N(CC2CC2)CC[C@]314)C[C@@]1(O)[C@H]2Cc3ccc(O)c4c3[C@@]1(CCN2CC1CC1)[C@H]5O4` [nor-BNI, norbinaltorphimine] the “effect on U50,488-induced calcium signals in DRG neurons” value (DRG neurons) was “inhibited the activity of U50,488”, the “antagonism of U50,488-induced antinociception” value (mice [5]) was “blocked the antinociceptive response of U50,488” and the “antagonism of U50,488 effect in the rotarod test” value (mice [6]) was “Antagonism”.

In the case of `CC(C)C[C@H](NC(=O)[C@H](CCCCN)NC(=O)[C@@H]1CCCN1C(=O)[C@H](CCCNC(=N)N)NC(=O)[C@@H]1CSCSCCC(=O)N[C@@H](Cc2ccc(O)cc2)C(=O)NCC(=O)NCC(=O)N[C@@H](Cc2ccccc2)C(=O)N[C@@H](CC(C)C)C(=O)N[C@@H](CCCNC(=N)N)C(=O)N[C@@H](CCCNC(=N)N)C(=O)N1)C(=O)N[C@@H](CCCCN)C(=O)O` [CSD-CH2(1,8)-OH] ([Mpa]YGGFLRRCRPKLK-OH; linker 1-9 via CH2), the “activity at KOR” value (mouse KOR [3]) is reported as “inactive”.

With `CC[C@H](C)[C@@H]1NC(=O)[C@H](CCCNC(=N)N)NC(=O)[C@H](CCCNC(=N)N)NC(=O)[C@H](CC(C)C)NC(=O)[C@H](Cc2ccccc2)NC(=O)CNC(=O)CNC(=O)[C@H](Cc2ccc(O)cc2)NC(=O)CCSCSC[C@@H](C(=O)N[C@@H](CCCCN)C(=O)N[C@@H](CC(C)C)C(=O)N[C@@H](CCCCN)C(N)=O)NC(=O)[C@H](CCCNC(=N)N)NC1=O` [CSD-CH2(1,10)-NH2] ([Mpa]YGGFLRRIRCKLK-NH2; linker 1-11 via CH2) the Ki (mouse KOR [1]) was 6 nM, the Ki (mouse KOR [1]; [7]) was 5.6 nM and the “improvement of KOR affinity by C-terminal amidation” value (mouse KOR [1]; versus counterpart with C-terminal carboxylic acid) was roughly 6 fold. For the same compound, the “β-arrestin-2 recruitment efficiency” value (mouse KOR [2]) was 38%, the EC50 (mouse KOR [3]) was 540 nM and the Emax (mouse KOR [3]) was 49 ± 15%.
